Measurements: patent US9487501B2, “Pyrazole carboxamide compounds and uses thereof” (Hoffmann-La Roche Inc., priority 2012, dated 2016)
Structures can show the parent of a compound that is named as a salt. Where two headings read alike, the source gives them in different places.

Columns and labels:
rat TAAR1 = rat TAAR1 (Rattus norvegicus (Rat), UniProt Q923Y9); assay: Radioligand binding assay on rat TAAR1;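 note: stably transfected HEK293 cell membranes with a tritiated radioligand, 1 h incubation at 4 °C, nonspecific binding taken as binding with 10 µM unlabeled ligand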
Sequence of rat TAAR1 (Q923Y9 whole entry): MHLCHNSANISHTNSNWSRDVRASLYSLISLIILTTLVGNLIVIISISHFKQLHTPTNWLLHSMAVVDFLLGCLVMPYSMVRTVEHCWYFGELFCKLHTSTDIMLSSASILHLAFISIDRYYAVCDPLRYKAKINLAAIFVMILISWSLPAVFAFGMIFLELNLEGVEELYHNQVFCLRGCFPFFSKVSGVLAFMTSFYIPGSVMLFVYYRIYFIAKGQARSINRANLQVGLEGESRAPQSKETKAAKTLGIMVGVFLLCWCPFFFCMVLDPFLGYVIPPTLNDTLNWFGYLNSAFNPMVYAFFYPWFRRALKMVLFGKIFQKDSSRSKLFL

mouse TAAR1 = mouse TAAR1 (Mus musculus (Mouse), UniProt Q923Y8); assay: Radioligand binding assay on mouse TAAR1
Sequence of mouse TAAR1 (Q923Y8 whole entry): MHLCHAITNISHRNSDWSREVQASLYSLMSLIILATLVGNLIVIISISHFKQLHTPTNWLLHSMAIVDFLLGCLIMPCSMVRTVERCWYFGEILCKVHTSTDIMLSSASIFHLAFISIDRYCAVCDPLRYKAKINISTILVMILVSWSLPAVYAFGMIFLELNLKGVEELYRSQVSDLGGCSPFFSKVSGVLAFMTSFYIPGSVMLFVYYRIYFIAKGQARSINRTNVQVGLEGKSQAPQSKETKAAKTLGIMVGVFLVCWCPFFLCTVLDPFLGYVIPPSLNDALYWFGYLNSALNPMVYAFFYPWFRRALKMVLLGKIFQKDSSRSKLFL

[1] = read-out: Ki (μM) rat, rat TAAR1, membranes of HEK-293 cells, radioligand displacement
[2] = read-out: Ki (μM) mouse, mouse TAAR1, membranes of HEK-293 cells, radioligand displacement

Row | Ki (rat TAAR1; [1]) [µM] | Ki (mouse TAAR1; [2]) [µM] | SMILES | Ki (rat TAAR1) [µM] | Ki (mouse TAAR1) [µM]
1 | 0.229 | 0.0086 | Cc1c(C(=O)Nc2ccc([C@H]3CNCCO3)cc2)cnn1-c1ccccc1 [Example 1, (S)-5-methyl-N-(4-(morpholin-2-yl)phenyl)-1-phenyl-1H-pyrazole-4-carboxamide hydrochloride] | – | –
2 | 0.0033 | 0.0007 | O=C(Nc1ccc([C@H]2CNCCO2)cc1)c1cnn(-c2ccc(F)cc2)c1 [Example 4, (S)-1-(4-fluorophenyl)-N-(4-(morpholin-2-yl)phenyl)-1H-pyrazole-4-carboxamide hydrochloride] | – | –
3 | 0.0039 | 0.0015 | O=C(Nc1ccc([C@H]2CNCCO2)cc1)c1cnn(-c2cccc(F)c2)c1 [Example 5, (S)-1-(3-fluorophenyl)-N-(4-(morpholin-2-yl)phenyl)-1H-pyrazole-4-carboxamide hydrochloride] | – | –
4 | 0.0046 | 0.0016 | O=C(Nc1ccc([C@H]2CNCCO2)cc1)c1cnn(-c2ccc(Cl)cn2)c1 [Example 7, (S)-1-(5-chloropyridin-2-yl)-N-(4-(morpholin-2-yl)phenyl)-1H-pyrazole-4-carboxamide hydrochloride] | – | –
5 | 0.0041 | 0.0012 | O=C(Nc1ccc([C@H]2CNCCO2)cc1)c1cnn(-c2ccc(I)cn2)c1 [Example 10, (S)-1-(5-iodopyridin-2-yl)-N-(4-(morpholin-2-yl)phenyl)-1H-pyrazole-4-carboxamide hydrochloride] | – | –
6 | 0.0011 | 0.0012 | O=C(Nc1ccc([C@@H]2CNCCO2)cc1)c1cnn(-c2ccc(F)cc2)c1 [Example 12, (R)-1-(4-fluorophenyl)-N-(4-(morpholin-2-yl)phenyl)-1H-pyrazole-4-carboxamide hydrochloride] | – | –
7 | 0.0019 | 0.0013 | O=C(Nc1ccc([C@H]2CNCCO2)cc1)c1cnn(-c2cc(C(F)(F)F)ccn2)c1 [Example 14, (S)—N-(4-(morpholin-2-yl)phenyl)-1-(4-(trifluoromethyl)pyridin-2-yl)-1H-pyrazole-4-carboxamide hydrochloride] | – | –
8 | 0.0036 | 0.0016 | O=C(Nc1ccc([C@H]2CNCCO2)cc1)c1cnn(-c2cc(Cl)ccn2)c1 [Example 15, (S)-1-(4-chloropyridin-2-yl)-N-(4-(morpholin-2-yl)phenyl)-1H-pyrazole-4-carboxamide hydrochloride] | – | –
9 | 0.0029 | 0.0035 | O=C(Nc1ccc([C@H]2CNCCO2)cc1)c1cnn(-c2ccnc(Br)c2)c1 [Example 16, (S)-1-(2-bromopyridin-4-yl)-N-(4-(morpholin-2-yl)phenyl)-1H-pyrazole-4-carboxamide hydrochloride] | – | –
10 | 0.0015 | 0.0021 | N#Cc1cc(Br)ccc1-n1cc(C(=O)Nc2ccc([C@H]3CNCCO3)cc2)cn1 [Example 17, (S)-1-(4-bromo-2-cyanophenyl)-N-(4-(morpholin-2-yl)phenyl)-1H-pyrazole-4-carboxamide hydrochloride] | – | –
11 | 0.016 | 0.0135 | O=C(Nc1ccc([C@H]2CNCCO2)cc1)c1cnn(-c2ncc(C(F)(F)F)cc2F)c1 [Example 19, (S)-1-(3-fluoro-5-(trifluoromethyl)pyridin-2-yl)-N-(4-(morpholin-2-yl)phenyl)-1H-pyrazole-4-carboxamide hydrochloride] | – | –
12 | 0.0059 | 0.0041 | O=C(Nc1ccc([C@H]2CNCCO2)cc1)c1cnn(-c2ccnc(Cl)c2)c1 [Example 20, (S)-1-(2-chloropyridin-4-yl)-N-(4-(morpholin-2-yl)phenyl)-1H-pyrazole-4-carboxamide hydrochloride] | – | –
13 | 0.004 | 0.0017 | O=C(Nc1ccc([C@H]2CNCCO2)cc1)c1cnn(-c2ccc(OC(F)F)cc2)c1 [Example 21, (S)-1-(4-(difluoromethoxy)phenyl)-N-(4-(morpholin-2-yl)phenyl)-1H-pyrazole-4-carboxamide hydrochloride] | – | –
14 | 0.0014 | 0.001 | O=C(Nc1ccc([C@H]2CNCCO2)cc1)c1cnn(-c2cccc(OC(F)F)c2)c1 [Example 22, (S)-1-(3-(difluoromethoxy)phenyl)-N-(4-(morpholin-2-yl)phenyl)-1H-pyrazole-4-carboxamide hydrochloride] | – | –
15 | 0.0154 | 0.0175 | N#Cc1ccc(-n2cc(C(=O)Nc3ccc([C@H]4CNCCO4)cc3)cn2)cc1F [Example 24, (S)-1-(4-cyano-3-fluorophenyl)-N-(4-(morpholin-2-yl)phenyl)-1H-pyrazole-4-carboxamide hydrochloride] | – | –
16 | 0.0005 | 0.0007 | O=C(Nc1ccc([C@H]2CNCCO2)cc1)c1cnn(-c2ccc(OC(F)(F)F)cc2)c1 [Example 26, (S)—N-(4-(morpholin-2-yl)phenyl)-1-(4-(trifluoromethoxy)phenyl)-1H-pyrazole-4-carboxamide hydrochloride] | – | –
17 | 0.001 | 0.0013 | O=C(Nc1ccc([C@@H]2CNCCO2)cc1)c1cnn(-c2ccc(OC(F)F)cc2)c1 [Example 27, (R)-1-(4-(difluoromethoxy)phenyl)-N-(4-(morpholin-2-yl)phenyl)-1H-pyrazole-4-carboxamide hydrochloride] | – | –
18 | 0.0022 | 0.0008 | CCOc1cccc(-n2cc(C(=O)Nc3ccc([C@H]4CNCCO4)cc3)cn2)n1 [Example 28, (S)-1-(6-ethoxypyridin-2-yl)-N-(4-(morpholin-2-yl)phenyl)-1H-pyrazole-4-carboxamide hydrochloride] | – | –
19 | 0.135 | 0.0166 | O=C(Nc1ccc([C@H]2CNCCO2)cc1)c1cnn(-c2ncc(Cl)cn2)c1 [Example 30, (S)-1-(5-chloropyrimidin-2-yl)-N-(4-(morpholin-2-yl)phenyl)-1H-pyrazole-4-carboxamide hydrochloride] | – | –

Further lines, the molecule ahead of its results:

Row | SMILES | Ki (rat TAAR1; [1]) [µM] | Ki (mouse TAAR1; [2]) [µM] | Ki (rat TAAR1) [µM] | Ki (mouse TAAR1) [µM]
20 | O=C(Nc1ccc(C2CCNC2)cc1)c1cnn(-c2ccc(OC(F)F)cc2)c1 (racemic) [Example 54, (RS)-1-(4-difluoromethoxy-phenyl)-1H-pyrazole-4-carboxylic acid (4-pyrrolidin-3-yl-phenyl)-amide] | – | – | 0.0011 | 0.0016
21 | O=C(Nc1ccc(C2CCCNC2)cc1)c1cnn(-c2ccc(OC(F)F)cc2)c1 (racemic) [Example 55, (RS)-1-(4-difluoromethoxy-phenyl)-1H-pyrazole-4-carboxylic acid (4-piperidin-3-yl-phenyl)-amide hydrochloride] | – | – | 0.003 | 0.002
22 | Nc1c(C(=O)Nc2ccc([C@H]3CNCCO3)cc2)cnn1-c1ccc(F)cc1 [Example 2, (S)-5-amino-1-(4-fluorophenyl)-N-(4-(morpholin-2-yl)phenyl)-1H-pyrazole-4-carboxamide dihydrochloride] | 0.401 | 0.0144 | – | –
23 | COc1ccc(-n2cc(C(=O)Nc3ccc([C@H]4CNCCO4)cc3)cn2)cc1 [Example 3, (S)-1-(4-methoxyphenyl)-N-(4-(morpholin-2-yl)phenyl)-1H-pyrazole-4-carboxamide hydrochloride] | 0.0165 | 0.0025 | – | –
24 | N#Cc1ccc(-n2cc(C(=O)Nc3ccc([C@H]4CNCCO4)cc3)cn2)cc1 [Example 6, (S)-1-(4-cyanophenyl)-N-(4-(morpholin-2-yl)phenyl)-1H-pyrazole-4-carboxamide hydrochloride] | 0.007 | 0.0028 | – | –
25 | N#Cc1ccc(-n2cc(C(=O)Nc3ccc([C@H]4CNCCO4)cc3)cn2)nc1 [Example 8, (S)-1-(5-cyanopyridin-2-yl)-N-(4-(morpholin-2-yl)phenyl)-1H-pyrazole-4-carboxamide hydrochloride] | 0.0147 | 0.0089 | – | –
26 | O=C(Nc1ccc([C@H]2CNCCO2)cc1)c1cnn(-c2ccc(Br)cn2)c1 [Example 9, (S)-1-(5-bromopyridin-2-yl)-N-(4-(morpholin-2-yl)phenyl)-1H-pyrazole-4-carboxamide hydrochloride] | 0.0043 | 0.0017 | – | –
27 | O=C(Nc1ccc([C@H]2CNCCO2)cc1)c1cnn(-c2ccc(C(F)(F)F)cn2)c1 [Example 11, (S)—N-(4-(morpholin-2-yl)phenyl)-1-(5-(trifluoromethyl)pyridin-2-yl)-1H-pyrazole-4-carboxamide hydrochloride] | 0.0023 | 0.0023 | – | –
28 | N#Cc1cccc(-n2cc(C(=O)Nc3ccc([C@H]4CNCCO4)cc3)cn2)c1 [Example 13, (S)-1-(3-cyanophenyl)-N-(4-(morpholin-2-yl)phenyl)-1H-pyrazole-4-carboxamide hydrochloride] | 0.0072 | 0.0023 | – | –
29 | COc1cccc(-n2cc(C(=O)Nc3ccc([C@H]4CNCCO4)cc3)cn2)n1 [Example 18, (S)-1-(6-methoxypyridin-2-yl)-N-(4-(morpholin-2-yl)phenyl)-1H-pyrazole-4-carboxamide hydrochloride] | 0.0029 | 0.001 | – | –
30 | N#Cc1ccc(-n2cc(C(=O)Nc3ccc([C@H]4CNCCO4)cc3)cn2)c(F)c1 [Example 23, (S)-1-(4-cyano-2-fluorophenyl)-N-(4-(morpholin-2-yl)phenyl)-1H-pyrazole-4-carboxamide hydrochloride] | 0.007 | 0.0041 | – | –
31 | N#Cc1cc(F)ccc1-n1cc(C(=O)Nc2ccc([C@H]3CNCCO3)cc2)cn1 [Example 25, (S)-1-(2-cyano-4-fluorophenyl)-N-(4-(morpholin-2-yl)phenyl)-1H-pyrazole-4-carboxamide hydrochloride] | 0.0078 | 0.0082 | – | –
32 | O=C(Nc1ccc([C@H]2CNCCO2)cc1)c1cnn(-c2ccc3c(c2)OC(F)(F)O3)c1 [Example 29, (S)-1-(2,2-difluorobenzo[d][1,3]dioxol-5-yl)-N-(4-(morpholin-2-yl)phenyl)-1H-pyrazole-4-carboxamide hydrochloride] | 0.0014 | 0.0023 | – | –
33 | Cc1c(C(=O)Nc2ccc([C@H]3CNCCO3)cc2)cnn1-c1ccc(OC(F)F)cc1 [Example 31, (S)-1-(4-(difluoromethoxy)phenyl)-5-methyl-N-(4-(morpholin-2-yl)phenyl)-1H-pyrazole-4-carboxamide hydrochloride] | 0.045 | 0.0013 | – | –
